Laboratory results published in US20230405095A1, “DOSING REGIMEN” (VIIV HEALTHCARE UK (NO. 7) LIMITED, priority 2022, published 2023).
Where “and” joins values, the source holds several entries; their conditions need not be identical. Identical values can stand only once. Like-named read-outs stand apart in the source and are kept apart here.

Tests used:
[1] = CAB Cmax safety threshold; format: in vivo; conditions: CAB plasma concentration; read-out: safety threshold: Cmax not associated with any toxicity
[2] = system: HIV-1 strains; conditions: integrase strand transfer inhibitor; broad range of HIV-1 strains; cited from earlier work
[3] = Blood pharmacokinetics of cabotegravir after a single subcutaneous administration with or without rHuPH20; format: in vivo, male Sprague-Dawley rats; conditions: for Tmax / half-life / AUC(0-t) / Cmax / AUC (0-tlast) / T½: rat blood; for half-life: read-out: T½ (converted); for AUC(0-t): read-out: AUC (0-tlast)
Method: Cabotegravir (free acid) was supplied by the Department of Pharmaceutical Development, at GSK, Upper Providence (UP), as a wet bead milled suspension (WBM), of nominal 200 mg/mL active concentration, white to slightly pink in appearance to be used for subcutaneous (SC) injection. The test article was milled and supplied in an aqueous vehicle (see Table 1). The test article was filled into vials, stoppered, sealed and subjected to gamma sterilization at between 25-45 kGy.
Twelve male Sprague-Dawley rats (body weight approximately 275-300 grams upon arrival), from Charles River Laboratories, Raleigh, were used in this study. Rats were randomized by number one day prior to the start of study. All rats were euthanized at study end.
Dose volumes administered for cabotegravir (target concentration of 200 mg/mL) were based on animal weights obtained just prior to dosing to achieve a target dosage of 10 mg/kg (groups 1 and 2) and 5 mg/kg (groups 3 and 4). Test article was resuspended prior to dosing by inverting supplied vials and checking vial bottom for non-resuspended sediments. Syringes used to dose cabotegravir were weighed pre- and post-dose to determine exact amount of cabotegravir administered. Rats were lightly anesthetized under isoflurane for a short period to perform the dosing procedure. Injection sites were shaved immediately prior to dosing, wiped with alcohol and allowed to dry. For groups 1 and 3, the cabotegravir doses were injected subcutaneously into the lower scapular region. After removing the dosing needle, minimal, but adequate, pressure was applied to the skin at the injection site (i.e., to keep the site still and closed) for approximately 1 minute to enable coagulation and sealing of the puncture. The sites were observed immediately after the needle was withdrawn to note any dose leakage. For groups 2 and 4, the rHuPH20 was injected subcutaneously first (approximately 3000 units in 100 μL, these syringes were not weighed), immediately followed by the Cabotegravir injection with the goal of injecting both formulations in the same subcutaneous space of the lower scapular region. After removing the second dosing needle, minimal, but adequate, pressure was applied to the skin at the injection site (i.e., to keep the site still and closed) for approximately 1 minute to enable coagulation and sealing of the puncture. Any dose leakage was noted. Injection sites were monitored daily for the first week of study and then weekly for the remainder of the study and observations recorded. Body weights were recorded on day 0 and then weekly for the remainder of the study.
Blood samples were collected via lateral vein or tail tip amputation. On study Day 0, following subcutaneous injection, blood samples (approximately 75 μL/rat/time point) were collected into 500 μL K2 EDTA tubes at 1, 2, 4 and 8 hr. Samples were then collected at 24 hrs., 48 hrs., and on Days 3, 7, 14, 21, 28, 56 and 84. Exactly 75 μL of whole blood was pipetted into a new tube containing 75 μL of sterile water. Samples were vortexed and placed on dry ice immediately. Samples were stored at −80° C. until transferred to Yinghe Li (DMPK, US) for analysis.
Rat blood: water samples were analyzed for cabotegravir using an analytical method based on protein precipitation, followed by UPLC/MS/MS analysis. The lower limit of quantification (LLQ) for cabotegravir was 5 ng/mL using a 150 μL aliquot of rat blood: water with a higher limit of quantification (HLQ) of 20000 ng/mL. Analyst software version 1.7.1 was used to acquire and process LC-MS/MS data. The applicable analytical runs met all predefined run acceptance criteria.
Pharmacokinetic analysis of cabotegravir blood concentration-time data was performed by a non-compartmental method using Phoenix WinNonlin®, Version 8.1 software. All computations utilized nominal sampling times and doses for the study. […]

[4] = Clinical PK of single SC injection of CAB200 with rHuPH20 (Studies 212482 and 218012); format: in vivo, healthy adult participants; conditions: SC with rHuPH20, dose level of 3200 mg or lower
Method: In a Phase 1 open-label, dose-escalation study to investigate the safety, tolerability and pharmacokinetics of single-dose administration of various CAB formulations with and without rHuPH20 in healthy adult participants, CAB200 at doses of 800, 1600 and 3200 mg have been administered with rHuPH20 (10,000 IU). rHuPH20 and CAB formulations were administered sequentially; subcutaneous (SC) administration by a health care provider (HCP) is via a butterfly needle and slow SC infusion in the abdominal SC tissue using a syringe pump.
A summary of CAB200 LA SC PK data with rHuPH20 is set forth in the Table below. • In Study 212482, single SC injection of CAB200 (2 mL/400 mg) with rHuPH20 (5000 units) was studied in Cohort 4 h. • In Study 218012, single SC injection of CAB200 with rHuPH20 was studied in cohorts A1 (4 mL/800 mg CAB200), A2 (8 mL/1600 mg CAB200) and A3 (16 mL/3200 mg CAB200). The dose of rHuPH20 was 10000 units. In both studies, rHuPH20 was injected first, followed by SC injection of CAB200.

[5] = male, Sprague-Dawley, rat, whole blood, sc, 5 mg/kg, single SC 5 mg/kg, with rHuPH20 approx. 3000 units SC (Group 4), mean ± SD
[6] = male, Sprague-Dawley, rat, whole blood, sc, 5 mg/kg, single SC 5 mg/kg, without rHuPH20 (Group 3), individual animals
[7] = male, Sprague-Dawley, rat, whole blood, sc, 5 mg/kg, single SC 5 mg/kg, without rHuPH20 (Group 3), mean ± SD
[8] = male, Sprague-Dawley, rat, whole blood, sc, 10 mg/kg, single SC 10 mg/kg, with rHuPH20 approx. 3000 units SC (Group 2), mean ± SD
[9] = single SC 5 mg/kg, with rHuPH20 approx. 3000 units SC (Group 4), individual animals, 5 mg/kg
[10] = single SC 5 mg/kg, without rHuPH20 (Group 3), individual animals, 5 mg/kg
[11] = single SC 10 mg/kg, with rHuPH20 approx. 3000 units SC (Group 2), individual animals, 10 mg/kg
[12] = single SC 10 mg/kg, without rHuPH20 (Group 1), individual animals, 10 mg/kg

## C[C@H]1CO[C@@H]2Cn3cc(C(=O)NCc4ccc(F)cc4F)c(=O)c(O)c3C(=O)N12 [Cabotegravir, N-((2,4-Difluorophenyl)methyl)-6-hydroxy-3-methyl-5,7-dioxo-2,3,5,7,11,11a hexahydro(1,3)oxazolo(3,2-a)pyrido(1,2-d)pyrazine-8-carboxamide]
[1]
  Cmax: 22500 ng/mL
[2]
  potency: subnanomolar
[3]; male, Sprague-Dawley, rat, whole blood, sc, 5 mg/kg, single SC 5 mg/kg, with rHuPH20 approx. 3000 units SC (Group 4), individual animals, read-out: Tmax
  Tmax: 14.2 days
[3]; male, Sprague-Dawley, rat, whole blood, sc, 5 mg/kg, single SC 5 mg/kg, with rHuPH20 approx. 3000 units SC (Group 4), individual animals
  half-life: 10 days
[3]; [5]
  AUC(0-t): 2800 ± 993 µg·h/mL
  half-life: 7.5 days
[3]; male, Sprague-Dawley, rat, whole blood, sc, 5 mg/kg, single SC 5 mg/kg, with rHuPH20 approx. 3000 units SC (Group 4), mean ± SD, read-out: Cmax
  Cmax: 3800 ± 1600 ng/mL
[3]; male, Sprague-Dawley, rat, whole blood, sc, 5 mg/kg, single SC 5 mg/kg, with rHuPH20 approx. 3000 units SC (Group 4), median, read-out: Tmax
  Tmax: 14.2 days
[3]; [6]
  AUC(0-t): 4540 µg·h/mL
  half-life: 8.33 days
[3]; male, Sprague-Dawley, rat, whole blood, sc, 5 mg/kg, single SC 5 mg/kg, without rHuPH20 (Group 3), individual animals, read-out: Cmax
  Cmax: 7600 ng/mL
[3]; male, Sprague-Dawley, rat, whole blood, sc, 5 mg/kg, single SC 5 mg/kg, without rHuPH20 (Group 3), individual animals, read-out: Tmax
  Tmax: 14.2 days
[3]; [7]
  AUC(0-t): 4400 ± 903 µg·h/mL
  half-life: 8.33 days
[3]; male, Sprague-Dawley, rat, whole blood, sc, 5 mg/kg, single SC 5 mg/kg, without rHuPH20 (Group 3), mean ± SD, read-out: Cmax
  Cmax: 7000 ± 1500 ng/mL
[3]; male, Sprague-Dawley, rat, whole blood, sc, 5 mg/kg, single SC 5 mg/kg, without rHuPH20 (Group 3), median, read-out: Tmax
  Tmax: 14.2 days
[3]; male, Sprague-Dawley, rat, whole blood, sc, 10 mg/kg, single SC 10 mg/kg, with rHuPH20 approx. 3000 units SC (Group 2), individual animals
  AUC(0-t): 6280 µg·h/mL
[3]; male, Sprague-Dawley, rat, whole blood, sc, 10 mg/kg, single SC 10 mg/kg, with rHuPH20 approx. 3000 units SC (Group 2), individual animals, read-out: Cmax
  Cmax: 10000 ng/mL
[3]; male, Sprague-Dawley, rat, whole blood, sc, 10 mg/kg, single SC 10 mg/kg, with rHuPH20 approx. 3000 units SC (Group 2), individual animals, read-out: Tmax
  Tmax: 14.2 days
[3]; [8]
  AUC(0-t): 7730 ± 1930 µg·h/mL
  half-life: 15 days
[3]; male, Sprague-Dawley, rat, whole blood, sc, 10 mg/kg, single SC 10 mg/kg, with rHuPH20 approx. 3000 units SC (Group 2), mean ± SD, read-out: Cmax
  Cmax: 9100 ± 2100 ng/mL
[3]; male, Sprague-Dawley, rat, whole blood, sc, 10 mg/kg, single SC 10 mg/kg, with rHuPH20 approx. 3000 units SC (Group 2), median, read-out: Tmax
  Tmax: 14.2 days
[3]; male, Sprague-Dawley, rat, whole blood, sc, 10 mg/kg, single SC 10 mg/kg, without rHuPH20 (Group 1), individual animals
  AUC(0-t): 5640 µg·h/mL
[3]; male, Sprague-Dawley, rat, whole blood, sc, 10 mg/kg, single SC 10 mg/kg, without rHuPH20 (Group 1), individual animals, read-out: Tmax
  Tmax: 14.2 days
[3]; male, Sprague-Dawley, rat, whole blood, sc, 10 mg/kg, single SC 10 mg/kg, without rHuPH20 (Group 1), mean ± SD (animal 12 excluded)
  half-life: 13.8 days
[3]; male, Sprague-Dawley, rat, whole blood, sc, 10 mg/kg, single SC 10 mg/kg, without rHuPH20 (Group 1), mean ± SD
  AUC(0-t): 7320 ± 2320 µg·h/mL
[3]; male, Sprague-Dawley, rat, whole blood, sc, 10 mg/kg, single SC 10 mg/kg, without rHuPH20 (Group 1), mean ± SD, read-out: Cmax
  Cmax: 8000 ± 3500 ng/mL
[3]; male, Sprague-Dawley, rat, whole blood, sc, 10 mg/kg, single SC 10 mg/kg, without rHuPH20 (Group 1), median, read-out: Tmax
  Tmax: 14.2 days
[3]; [9]
  AUC (0-tlast): 3348 µg·h/mL and 1654 µg·h/mL and 3397 µg·h/mL
  Cmax: 3200 ng/mL and 2600 ng/mL and 5700 ng/mL
  Tmax: 7.08 days
  T½: 160 h and 140 h
[3]; [10]
  AUC (0-tlast): 5221 µg·h/mL and 3432 µg·h/mL
  Cmax: 5200 ng/mL
  Tmax: 7.08 days
  T½: 220 h and 170 h
[3]; [11]
  AUC (0-tlast): 7008 µg·h/mL and 9916 µg·h/mL
  Cmax: 6800 ng/mL
  T½: 210 h and 360 h and 510 h
[3]; [12]
  AUC (0-tlast): 9970 µg·h/mL and 6333 µg·h/mL
  Cmax: 7100 ng/mL and 12000 ng/mL and 5100 ng/mL
  T½: 430 h and 230 h and 1100^b^ h
[3]; rats, single SC 5 and 10 mg/kg, rHuPH20 3000 U
  systemic exposure with versus without administration of rHuPH20: similar
[3]; rats, single SC, target doses of 5 and 10 mg/kg
  systemic exposure as defined by AUC: dose proportionality: approximately dose proportional
[4]
  CAB SC Cmax versus safety threshold: < 22500 ng/mL
